pEC50: −log10 of the molar value.
System: M. tuberculosis H37Rv_gfp
Type: cell-based, Mycobacterium tuberculosis
Conditions: in combination with pretomanid 20 ng·mL−1; 5 days at 37° C.; […]; read-out: EC50 H37Rv_gfp

O=C1[C@@H]2[C@H](C(=O)N1c1nc3ccc(-c4ccc(C(F)(F)F)cc4)cc3s1)[C@@H]1C=C[C@H]2C1 [Example 61, (1R,2S,6R,7S)-4-[6-[4-(trifluoromethyl)phenyl]-1,3-benzothiazol-2-yl]-4-azatricyclo[5.2.1.02,6]dec-8-ene-3,5-dione] and C#CCOc1ccc(-c2ccc3nc(N4C(=O)[C@@H]5[C@H](C4=O)[C@@H]4C=C[C@H]5C4)sc3c2)cc1 [Example 71, (1R,2S,6R,7S)-4-[6-(4-prop-2-ynoxyphenyl)-1,3-benzothiazol-2-yl]-4-azatricyclo[5.2.1.02,6]dec-8-ene-3,5-dione] cannot be ordered by pEC50: over 6.00 for the first, over 6.00 for the second.

Cc1ccnc(Oc2ccc3nc(N4C(=O)[C@@H]5C6C=CC(C6)[C@@H]5C4=O)sc3c2)c1 [Example 30] and O=C1[C@@H]2[C@H](C(=O)N1c1nc3ccc(Oc4ccc(C(F)(F)F)cn4)cc3s1)[C@@H]1C=C[C@H]2C1 [Example 36, (1R,2S,6R,7S)-4-[6-[[5-(trifluoromethyl)-2-pyridyl]oxy]-1,3-benzothiazol-2-yl]-4-azatricyclo[5.2.1.02,6]dec-8-ene-3,5-dione] cannot be ordered by pEC50: over 6.00 for the first, over 6.00 for the second.

First: O=C(Nc1nc2ccc(C(F)(F)F)cc2s1)[C@@H]1C2C=CC(C2)[C@@H]1C(=O)O (stereo partly shown) [Example 43, 3-[[6-(trifluoromethyl)-1,3-benzothiazol-2-yl]carbamoyl]bicyclo[2.2.1]hept-5-ene-2-carboxylic acid]
Second: O=C(Nc1nc2ccc(Oc3ccc(C(F)(F)F)cc3)cc2s1)[C@@H]1C2C=CC(C2)[C@@H]1C(=O)O (stereo partly shown) [Example 22, 3-[[6-[4-(trifluoromethyl)phenoxy]-1,3-benzothiazol-2-yl]carbamoyl]bicyclo[2.2.1]hept-5-ene-2-carboxylic acid]
The pEC50 of the first is higher: over 6.00 for the first, 5.30 to 6.00 for the second. The first is the more potent here.

First: COC(=O)c1ccc2nc(NC(=O)[C@@H]3C4C=CC(C4)[C@@H]3C(=O)O)sc2c1 (stereo partly shown) [Example 41, 3-[(6-methoxycarbonyl-1,3-benzothiazol-2-yl)carbamoyl]bicyclo[2.2.1]hept-5-ene-2-carboxylic acid]
Second: Cc1ccc(-c2ccc3nc(NC(=O)[C@@H]4C5C=CC(C5)[C@@H]4C(=O)O)sc3c2)cc1 (stereo partly shown) [Example 53, 3-[[6-(p-tolyl)-1,3-benzothiazol-2-yl]carbamoyl]bicyclo[2.2.1]hept-5-ene-2-carboxylic acid]
The pEC50 of the first is lower: 5.30 to 6.00 for the first, over 6.00 for the second.

Compared with O=C1[C@@H]2[C@H](C(=O)N1c1nc3ccc(Oc4ccccc4)cc3s1)[C@@H]1C=C[C@H]2C1 [Example 19, (1R,2S,6R,7S)-4-(6-phenoxy-1,3-benzothiazol-2-yl)-4-azatricyclo[5.2.1.02,6]dec-8-ene-3,5-dione], O=C1[C@@H]2[C@H](C(=O)N1c1nc3ccc(OC(F)(F)F)cc3s1)[C@@H]1C=C[C@H]2C1 [Example 45, (1R,2S,6R,7S)-4-[6-(trifluoromethoxy)-1,3-benzothiazol-2-yl]-4-azatricyclo[5.2.1.02,6]dec-8-ene-3,5-dione] is lower in pEC50: over 6.00 for the first, 5.30 to 6.00 for the second.

First: O=C(Nc1nc2ccc(-c3ccc4ncccc4c3)cc2s1)[C@@H]1C2C=CC(C2)[C@@H]1C(=O)O (stereo partly shown) [Example 81, 3-[[6-(6-quinolyl)-1,3-benzothiazol-2-yl]carbamoyl]bicyclo[2.2.1]hept-5-ene-2-carboxylic acid]
Second: O=C(Nc1nc2ccc(Oc3ccncc3)cc2s1)[C@@H]1C2C=CC(C2)[C@@H]1C(=O)O (stereo partly shown) [Example 24, 3-[[6-(4-pyridyloxy)-1,3-benzothiazol-2-yl]carbamoyl]bicyclo[2.2.1]hept-5-ene-2-carboxylic acid]
The pEC50 of the first is higher: 5.30 to 6.00 for the first, 5.00 to 5.30 for the second.

Molecule O=C(Nc1nc2ccc(Oc3ccc(F)cc3)cc2s1)[C@@H]1C2C=CC(C2)[C@@H]1C(=O)O (stereo partly shown) [Example 21, 3-[[6-(4-fluorophenoxy)-1,3-benzothiazol-2-yl]carbamoyl]bicyclo[2.2.1]hept-5-ene-2-carboxylic acid] has a pEC50 of over 6.00.

Same assay, conditions: in combination with pretomanid, unit inferred; read-out: average EC50 H37Rv_gfp

In order of falling pEC50:
1. O=C1[C@@H]2[C@H](C(=O)N1c1nc3ccc(Oc4ccc(C(F)(F)F)cn4)cc3s1)[C@@H]1C=C[C@H]2C1 [Example 36, (1R,2S,6R,7S)-4-[6-[[5-(trifluoromethyl)-2-pyridyl]oxy]-1,3-benzothiazol-2-yl]-4-azatricyclo[5.2.1.02,6]dec-8-ene-3,5-dione]  6.66
2. O=C(Nc1nc2ccc(Oc3ccc(F)cc3)cc2s1)[C@@H]1C2C=CC(C2)[C@@H]1C(=O)O (stereo partly shown) [Example 21, 3-[[6-(4-fluorophenoxy)-1,3-benzothiazol-2-yl]carbamoyl]bicyclo[2.2.1]hept-5-ene-2-carboxylic acid]  6.57

Same assay, conditions: read-out: EC50 H37Rv_gfp

O=C(Nc1nc2ccc(O)cc2s1)[C@@H]1C2C=CC(C2)[C@@H]1C(=O)O (stereo partly shown) [Example 50, 3-[(6-hydroxy-1,3-benzothiazol-2-yl)carbamoyl]bicyclo[2.2.1]hept-5-ene-2-carboxylic acid] gave a pEC50 of 4.70 to 5.00.
